SMILES strings stand for the structures.

This test concerns A549. The test is described as follows: Antiproliferative activity against human A549 cells assessed as inhibition of cell growth at 1.5 uM incubated for 48 hrs by MTT assay relative to control. Type of test: functional. The conditions noted are these: A549, 48 h, read-out: GI. Background: Tetrazolium dyes change colour on reduction, which living cells bring about.

For `CC1=C(O)C(=O)C=C2C1=CC=C1[C@@]2(C)CC[C@@]2(C)[C@@H]3C[C@](C)(C(=O)OCCCOC(=O)/C=C(\C#N)c4ccc(F)cc4)CC[C@]3(C)CC[C@]12C`, the inhibition of growth at 1.5 µM stood at 78.5%.

The values are drawn from ChEMBL document CHEMBL4376838, “Discovery of Novel Celastrol Derivatives as Hsp90-Cdc37 Interaction Disruptors with Antitumor Activity” (J Med Chem, 2019).
